These results are taken from patent US8604053B2, “TRPV1 antagonists” (AbbVie Inc., priority 2008, dated 2013).

The structures appear in SMILES notation.

Holding throughout (type): in vitro ADME
One series addresses T1, CYP2C9 (Homo sapiens, UniProt P11712).
T1 construct: human liver microsomes (BD Gentest); tissue BD Gentest; host or cells: human liver microsomes
Briefly: CYP2C9 inhibition assay. The settings on record: pH 7.4, probe Luciferin-H (100 μM final), human liver microsomes, substrate Luciferin-H, read-out: CYP2C9 % inh @ 2.2 μM. As to the method: (§1) Stock solutions of test compounds were assayed in 96-well format for their ability to inhibit CYP2C9, CYP2D6, or CYP3A4 mediated metabolism of test substrates. Luciferin-H was used as the substrate for CYP2C9; 3-[2-(N,N-diethyl-N-methylammonium)ethyl]-7-methoxy-4-methylcoumarin (AMMC) was used as the substrate for CYP2D6; 7-benzyloxyquiniline (BZQ) was used as the substrate for CYP3A4. For each subtype, positive controls (sulphaphenazole in the case of CYP2C9; quinidine in the case of CYP2D6, ketoconazole in the case of CYP3A4) were used to validate assay results run in duplicate.
(§2) Pre-Incubation Mixture Preparation for CYP2C9 and CYP2D6: A pre-incubation mixture was prepared by combining 100 mM phosphate buffer (9.12 mL; pH 7.4), human liver microsomes (BD Gentest, 240 itt; final concentration: 0.4 mg/mL), and 10 mM nicotinamide adenine dinucleotide phosphate in 65.4 mM MgCl2 hexahydrate (120 μL; final concentration: 125 μM and 818 μM, respectively). To this was mixture is added a ‘regeneration’ mixture (120 μL) of 333 mM glucose-6-phosphate and 40 U/mL glucose-6-phosphate dehydrogenase in 5 mM sodium citrate (final concentration: 4 mM, 0.5 U/mL, and 0.06 mM, respectively).
Substrate Mixture Preparation for CYP2C9: To a solution of 25 mM phosphate buffer, (2.16 mL, pH 7.4) was added 5 mM Luciferin-H (Promega P450 Glo Assay V8792, 240 μL; final solution concentration 0.5 mM, final assay concentration 100 μM).
CYP2C9 Inhibiton Assay: To each well in the assay plate containing varying concentrations of test compound or control compound in DMSO (10 μL) Pre-Incubation Mixture (40 itt) was added to the wells and the assay plate was pre-incubated for 10 minutes at 37° C., with shaking or rocking. CYP2C9 Substrate Mixture (10 μL) was added to all wells and the assay plate was incubated for an additional 25 minutes at 37° C., with shaking or rocking. Final DMSO concentration was 1%. Luciferin-H detection reagent (Promega kit V8792, 50 μL) was added to all wells. The plate was then vortexed at ambient temperature for between 20 minutes and 2 hours, and the luminescence of each well was then read and recorded.
(In general: Liver microsomes are a subcellular fraction often used to study metabolism.)

For a further series, the target named is T2, CYP2D6 (Homo sapiens, UniProt P10635).
T2 construct: human liver microsomes (BD Gentest); tissue BD Gentest; host or cells: human liver microsomes
Briefly: in vitro. Particulars: human, microsomes, pH 7.4. As to the method:
as §1, §2
Substrate Mixture Preparation for CYP2D6: To a solution of 100 mM phosphate buffer, (2.80 mL, pH 7.4) was added 10 mM AMMC in acetonitrile (14 itt; final solution concentration 0.05 mM, final assay concentration 10 μM).
(§3) CYP2D6 Inhibiton Assay: To each well in the assay plate containing varying concentrations of test compound or control compound in DMSO (10 μL), Pre-Incubation Mixture (40 μL) was added to the wells and the assay plate was pre-incubated for 10 minutes at 37° C., with shaking or rocking. A pre-read of each well was performed at 390 nm and 460 nm extinction/emission. CYP2D6 Substrate Mixture (10 μL) was added to all wells and the assay plate was incubated for an additional […] at 37° C., with shaking or rocking. Final DMSO concentration was 1%. A post-read of each well was then performed at 390 nm and 460 nm extinction/emission.

The target in another series is T3, CYP3A4 (Homo sapiens, UniProt P08684).
T3 construct: human liver microsomes (BD Gentest, 450 μL; final concentration: 0.4 mg/mL); tissue BD Gentest; host or cells: human liver microsomes
Briefly: CYP3A4 inhibition assay. The settings on record: pH 7.4, probe 7-benzyloxyquiniline (BZQ), 50 μM final, human liver microsomes, substrate BZQ, read-out: CYP3A4 % inh @ 2.2 μM. As to the method: Luciferin-H was used as the substrate for CYP2C9; 3-[2-(N,N-diethyl-N-methylammonium)ethyl]-7-methoxy-4-methylcoumarin (AMMC) was used as the substrate for CYP2D6; 7-benzyloxyquiniline (BZQ) was used as the substrate for CYP3A4.
Pre-Incubation Mixture Preparation for CYP3A4: A pre-incubation mixture was prepared by combining 100 mM phosphate buffer (19.35 mL; pH 7.4), human liver microsomes (BD Gentest, 450 μL; final concentration: 0.4 mg/mL), and 10 mM nicotinamide adenine dinucleotide phosphate in 65.4 mM MgCl2 hexahydrate (225 μL; final concentration: 100 μM and 654 μM, respectively). To this was mixture was added a ‘regeneration’ mixture (225 μL) of 333 mM glucose-6-phosphate and 40 U/mL glucose-6-phosphate dehydrogenase in 5 mM sodium citrate (final concentration: 3.3 mM, 0.4 U/mL, and 0.05 mM, respectively).
Substrate Mixture Preparation for CYP3A4: To a solution of 100 mM phosphate buffer, (2.36 mL, pH 7.4) was added 30 mM BZQ in acetonitrile (40 μL; final solution concentration 0.5 mM, final assay concentration 50 μM).
as §3, with “CYP3A4” for “CYP2D6”, “μL), CYP3A4” for “μL),”, “(90” for “(40”, “405” for “390”, “535” for “460”

T2 sequence (P10635 whole entry): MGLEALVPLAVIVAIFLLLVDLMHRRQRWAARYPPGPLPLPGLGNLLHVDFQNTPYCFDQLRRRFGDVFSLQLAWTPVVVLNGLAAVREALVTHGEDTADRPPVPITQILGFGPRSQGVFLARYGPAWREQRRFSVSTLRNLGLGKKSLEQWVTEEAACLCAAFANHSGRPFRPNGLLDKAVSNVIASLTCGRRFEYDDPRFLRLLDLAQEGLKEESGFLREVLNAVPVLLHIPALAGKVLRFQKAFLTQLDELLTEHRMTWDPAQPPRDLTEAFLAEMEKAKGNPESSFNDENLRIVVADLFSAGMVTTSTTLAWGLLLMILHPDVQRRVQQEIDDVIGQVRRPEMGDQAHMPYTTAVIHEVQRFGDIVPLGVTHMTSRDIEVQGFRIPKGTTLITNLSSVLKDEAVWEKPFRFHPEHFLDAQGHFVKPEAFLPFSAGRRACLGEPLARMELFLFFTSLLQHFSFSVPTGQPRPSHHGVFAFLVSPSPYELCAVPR
T3 sequence (P08684 whole entry): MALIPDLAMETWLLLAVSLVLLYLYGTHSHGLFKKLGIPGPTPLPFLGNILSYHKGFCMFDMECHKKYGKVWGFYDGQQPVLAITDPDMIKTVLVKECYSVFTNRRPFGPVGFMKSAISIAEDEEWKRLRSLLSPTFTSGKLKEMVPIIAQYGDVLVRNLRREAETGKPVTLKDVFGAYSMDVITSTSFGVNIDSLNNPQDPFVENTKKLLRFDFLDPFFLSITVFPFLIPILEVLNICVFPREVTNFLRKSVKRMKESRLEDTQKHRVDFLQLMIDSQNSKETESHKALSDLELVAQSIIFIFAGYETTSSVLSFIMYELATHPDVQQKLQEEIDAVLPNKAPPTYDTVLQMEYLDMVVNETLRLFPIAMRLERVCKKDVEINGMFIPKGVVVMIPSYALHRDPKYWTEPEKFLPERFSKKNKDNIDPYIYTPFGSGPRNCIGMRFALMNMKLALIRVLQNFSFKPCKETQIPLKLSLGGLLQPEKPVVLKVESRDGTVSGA
T1 sequence (P11712 whole entry): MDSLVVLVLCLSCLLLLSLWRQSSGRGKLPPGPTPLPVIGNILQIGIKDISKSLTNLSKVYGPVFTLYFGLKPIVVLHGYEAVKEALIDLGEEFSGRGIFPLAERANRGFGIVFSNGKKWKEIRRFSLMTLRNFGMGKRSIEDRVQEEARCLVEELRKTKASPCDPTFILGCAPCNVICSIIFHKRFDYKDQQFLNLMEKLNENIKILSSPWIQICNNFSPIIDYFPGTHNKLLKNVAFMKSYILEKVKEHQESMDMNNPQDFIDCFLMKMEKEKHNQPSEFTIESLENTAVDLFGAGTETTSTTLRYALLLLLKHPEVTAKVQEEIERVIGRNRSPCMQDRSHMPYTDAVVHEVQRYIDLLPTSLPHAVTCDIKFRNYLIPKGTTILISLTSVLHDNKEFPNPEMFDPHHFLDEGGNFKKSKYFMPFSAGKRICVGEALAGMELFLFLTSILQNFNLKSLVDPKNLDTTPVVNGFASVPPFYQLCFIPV

In the case of `Cc1cc2c(NC(=O)N[C@@H]3C[C@](C)(CF)Oc4cc(Cl)ccc43)cccc2cn1` (single isomer, unassigned) [Example 121], the figures for the inhibition at 25 min, 2.2 µM at CYP2C9, against CYP2D6 and at CYP3A4 were 15%, 8% and 23%, respectively.

Take `Cc1cc2c(NC(=O)N[C@@H]3C[C@@](C)(CF)Oc4cc(Cl)ccc43)cccc2cn1` (single isomer, unassigned) [Example 122]: the inhibition at 25 min, 2.2 µM was 20% on CYP2C9, 5% against CYP2D6 and 20% on CYP3A4.

For `Cc1cc2c(NC(=O)N[C@@H]3C[C@@](C)(C(F)F)Oc4cc(Cl)ccc43)cccc2cn1` (single isomer, unassigned) [Example 124], the inhibition at 25 min, 2.2 µM on CYP2C9 came to 1.2%; at CYP2D6, 8.4%; on CYP3A4 it was 21%.

`CC1(C)C[C@@H](NC(=O)Nc2cccc3cnccc23)c2cc(F)ccc2O1` [Example 5, N-[(4R)-6-fluoro-2,2-dimethyl-3,4-dihydro-2H-chromen-4-yl]-N′-isoquinolin-5-ylurea]: the inhibition at 25 min, 2.2 µM on CYP2C9 worked out at 55%; against CYP2D6, 100%; at CYP3A4 it was 61%.

For the molecule `CC1(C)C[C@@H](NC(=O)Nc2cccc3cnccc23)c2ccc(F)cc2O1` [Example 23, N-[(4R)-7-fluoro-2,2-dimethyl-3,4-dihydro-2H-chromen-4-yl]-N′-isoquinolin-5-ylurea], the figures for the inhibition at 25 min, 2.2 µM on CYP2C9 and at CYP3A4 were 56% and 69%, respectively.

Turning to `CC1(C)C[C@@H](NC(=O)Nc2cccc3cnccc23)c2ccccc2O1` [Example 27, N-[(4R)-2,2-dimethyl-3,4-dihydro-2H-chromen-4-yl]-N′-isoquinolin-5-ylurea], the inhibition at 25 min, 2.2 µM at CYP2C9 stood at 48%; on CYP3A4 it was 65%.

Regarding `CCC1(CC)C[C@@H](NC(=O)Nc2cccc3cnccc23)c2cc(F)ccc2O1` [Example 28, N-[(4R)-2,2-diethyl-6-fluoro-3,4-dihydro-2H-chromen-4-yl]-N′-isoquinolin-5-ylurea], the figures for the inhibition at 25 min, 2.2 µM at CYP2C9, on CYP2D6 and at CYP3A4 were 35%, 98% and 19%, respectively.

For the molecule `CC1(C)C[C@@H](NC(=O)Nc2cccc3cnccc23)c2ccc(C(F)(F)F)cc2O1` [Example 34, N-[(4R)-2,2-dimethyl-7-(trifluoromethyl)-3,4-dihydro-2H-chromen-4-yl]-N′-isoquinolin-5-ylurea], the inhibition at 25 min, 2.2 µM turned out to be 39% at CYP2C9, 97% against CYP2D6 and 36% on CYP3A4.

Consider `Cc1cc2c(NC(=O)N[C@@H]3CC(CF)(CF)Oc4ccc(F)cc43)cccc2cn1` [Example 65, N-[(4R)-6-fluoro-2,2-bis(fluoromethyl)-3,4-dihydro-2H-chromen-4-yl]-N′-(3-methylisoquinolin-5-yl)urea], for which the values for the inhibition at 25 min, 2.2 µM on CYP2C9, at CYP2D6 and at CYP3A4 were 0%, 12% and 0.57%, respectively.

Regarding `Cc1cc2c(NC(=O)N[C@@H]3CCOc4c(OC(F)(F)F)cccc43)cccc2cn1` [Example 66, N-(3-methylisoquinolin-5-yl)-N′-[(4R)-8-(trifluoromethoxy)-3,4-dihydro-2H-chromen-4-yl]urea], the inhibition at 25 min, 2.2 µM at CYP2C9 amounted to 4.5%; on CYP2D6 it was 9.5%; at CYP3A4 it was 0%.

For the molecule `CCCC1(CCC)C[C@@H](NC(=O)Nc2cccc3cnc(C)cc23)c2cccc(F)c2O1` [Example 68, N-[(4R)-8-fluoro-2,2-dipropyl-3,4-dihydro-2H-chromen-4-yl]-N′-(3-methylisoquinolin-5-yl)urea], the inhibition at 25 min, 2.2 µM on CYP2C9 came to 13%; against CYP2D6 it was 0%; on CYP3A4, 6.4%.

With `CCC1(CC)C[C@@H](NC(=O)Nc2cccc3cnc(C)cc23)c2ccc(Cl)cc2O1` [Example 69, N-[(4R)-7-chloro-2,2-diethyl-3,4-dihydro-2H-chromen-4-yl]-N′-(3-methylisoquinolin-5-yl)urea], the inhibition at 25 min, 2.2 µM came to 5.3% on CYP2C9, 0% on CYP2D6 and 0% on CYP3A4.

Take `CCC1(CC)C[C@@H](NC(=O)Nc2cccc3cnc(Cl)cc23)c2cccc(F)c2O1` [Example 81, N-(3-chloroisoquinolin-5-yl)-N′-[(4R)-2,2-diethyl-8-fluoro-3,4-dihydro-2H-chromen-4-yl]urea]: the inhibition at 25 min, 2.2 µM is 19% at CYP2C9, 0.68% against CYP2D6 and 0% at CYP3A4.

Take `Cc1cc2c(NC(=O)N[C@@H]3CC(CF)(CF)Oc4cc(Cl)ccc43)cccc2cn1` [Example 84, N-[(4R)-7-chloro-2,2-bis(fluoromethyl)-3,4-dihydro-2H-chromen-4-yl]-N′-(3-methylisoquinolin-5-yl)urea]: the figures for the inhibition at 25 min, 2.2 µM at CYP2C9 and against CYP2D6 were 3.7% and 49%, respectively.

Turning to `Cc1cc2c(NC(=O)N[C@@H]3CC(CF)(CF)Oc4c(F)cccc43)cccc2cn1` [Example 85, N-[(4R)-8-fluoro-2,2-bis(fluoromethyl)-3,4-dihydro-2H-chromen-4-yl]-N′-(3-methylisoquinolin-5-yl)urea], the figures for the inhibition at 25 min, 2.2 µM on CYP2C9, on CYP2D6 and at CYP3A4 were 7.2%, 10% and 0%, respectively.

Consider `Cc1cc2c(NC(=O)N[C@@H]3CC(CF)(CF)Oc4ccccc43)cccc2cn1` [Example 101, N-[(4R)-2,2-bis(fluoromethyl)-3,4-dihydro-2H-chromen-4-yl]-N′-(3-methylisoquinolin-5-yl)urea], for which the inhibition at 25 min, 2.2 µM on CYP2C9 and against CYP2D6 was 11% in each case.

Turning to `Cc1cc2c(NC(=O)N[C@@H]3CC(CF)(CF)Oc4cc(Br)ccc43)cccc2cn1` [Example 102, N-[(4R)-7-bromo-2,2-bis(fluoromethyl)-3,4-dihydro-2H-chromen-4-yl]-N′-(3-methylisoquinolin-5-yl)urea], the figures for the inhibition at 25 min, 2.2 µM on CYP2C9 and at CYP2D6 were 13% and 20%, respectively.
